The target in this experiment is human Gal-3 (hGal-3) (Homo sapiens (Human), UniProt P17931). In words: competitive binding assay: binding of biotinylated hGal-3 to microplate-adsorbed asialofetuin (ASF), spectrophotometric. Particulars: Activity on hGal-3; mean values of several measurements. A digest of the protocol: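 Spectrophotometric readout (streptavidin-peroxidase, ABTS) of biotinylated galectin retained on ASF-coated wells. Biotinylated hGal-1 or hGal-3, 300-1000 ng/mL, co-incubated with test compound 3 h at 4° C, then washed. Mean IC50 from repeat runs.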
Chain of human Gal-3 (hGal-3) (P17931 whole entry): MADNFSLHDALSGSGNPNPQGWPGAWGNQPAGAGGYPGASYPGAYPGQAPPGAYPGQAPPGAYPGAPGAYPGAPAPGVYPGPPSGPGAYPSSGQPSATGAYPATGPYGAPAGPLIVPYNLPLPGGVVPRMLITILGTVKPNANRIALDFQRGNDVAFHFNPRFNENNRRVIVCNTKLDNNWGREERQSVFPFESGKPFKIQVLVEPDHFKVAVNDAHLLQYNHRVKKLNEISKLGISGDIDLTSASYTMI
As to `CO[C@@H]1[C@@H](n2cc(-c3cc(F)cc(Cl)c3)nn2)[C@@H](O)[C@@H](CO)O[C@H]1C(=O)N(c1cc(Br)cc(C#N)c1)[C@H]1CCC[C@@H]1O` [Example 1.9.5, (2R,3R,4S,5R,6R)-N-(3-bromo-5-cyanophenyl)-4-(4-(3-chloro-5-fluorophenyl)-1H-1,2,3-triazol-1-yl)-5-hydroxy-N-((1S,2S)-2-hydroxycyclopentyl)-6-(hydroxymethyl)-3-methoxytetrahydro-2H-pyran-2-carboxamide], the IC50 was found to be 22.9 nM.

Molecule `CO[C@@H]1[C@@H](n2cc(-c3ccc(C#N)c(F)c3)nn2)[C@@H](O)[C@@H](CO)O[C@H]1C(=O)N(c1cc(Br)cc(C#N)c1)[C@H]1CC[C@@H]1O` [Example 2.16.5, (2R,3R,4S,5R,6R)-N-(3-bromo-5-cyanophenyl)-4-(4-(4-cyano-3-fluorophenyl)-1H-1,2,3-triazol-1-yl)-5-hydroxy-N-((1S,2S)-2-hydroxycyclobutyl)-6-(hydroxymethyl)-3-methoxytetrahydro-2H-pyran-2-carboxamide] showed an IC50 of 243 nM.

In turn, `COc1cc(-c2cn([C@H]3[C@@H](O)[C@@H](CO)O[C@@H](C(=O)N(c4cc(Br)cc(Br)c4)[C@@H]4CCC[C@H]4O)[C@@H]3OC)nn2)cc(F)c1F` [Example 1.3.11R, (2R,3R,4S,5R,6R)—N-(3,5-dibromophenyl)-4-(4-(3,4-difluoro-5-methoxyphenyl)-1H-1,2,3-triazol-1-yl)-5-hydroxy-N-((1R,2R)-2-hydroxycyclopentyl)-6-(hydroxymethyl)-3-methoxytetrahydro-2H-pyran-2-carboxamide] came in with an IC50 of 277 nM.

`CO[C@@H]1[C@@H](n2cc(-c3cc(F)c(F)c(F)c3)nn2)[C@@H](O)[C@@H](CO)O[C@H]1C(=O)N(c1cc(Br)cc(Br)c1)[C@@H]1CC[C@H]1O` [Example 2.1.11R, (2R,3R,4S,5R,6R)-N-(3,5-dibromophenyl)-5-hydroxy-N-((1R,2R)-2-hydroxycyclobutyl)-6-(hydroxymethyl)-3-methoxy-4-(4-(3,4,5-trifluorophenyl)-1H-1,2,3-triazol-1-yl)tetrahydro-2H-pyran-2-carboxamide] gave an IC50 of 334 nM.

`COc1cc(C#N)cc(N(C(=O)[C@@H]2O[C@H](CO)[C@H](O)[C@H](n3cc(-c4cc(F)cc(Br)c4)nn3)[C@H]2OC)[C@@H]2CCC[C@H]2O)c1` [Example 1.10.9R, (2R,3R,4S,5R,6R)-4-(4-(3-bromo-5-fluorophenyl)-1H-1,2,3-triazol-1-yl)-N-(3-cyano-5-methoxyphenyl)-5-hydroxy-N-((1R,2R)-2-hydroxycyclopentyl)-6-(hydroxymethyl)-3-methoxytetrahydro-2H-pyran-2-carboxamide] returned an IC50 of 1200 nM.

The molecule `CO[C@@H]1[C@@H](n2cc(-c3cc(F)c(Cl)c(F)c3)nn2)[C@@H](O)[C@@H](CO)O[C@H]1C(=O)N(c1cc(Br)cc(C#N)c1)[C@H]1CCC[C@@H]1O` [Example 1.5.5, (2R,3R,4S,5R,6R)-N-(3-bromo-5-cyanophenyl)-4-(4-(4-chloro-3,5-difluorophenyl)-1H-1,2,3-triazol-1-yl)-5-hydroxy-N-((1S,2S)-2-hydroxycyclopentyl)-6-(hydroxymethyl)-3-methoxytetrahydro-2H-pyran-2-carboxamide] yielded an IC50 of 33.9 nM.

Molecule `COc1cc(C#N)cc(N(C(=O)[C@@H]2O[C@H](CO)[C@H](O)[C@H](n3cc(-c4cc(F)cc(Br)c4)nn3)[C@H]2OC)[C@H]2CC[C@@H]2O)c1` [Example 2.10.9, (2R,3R,4S,5R,6R)-4-(4-(3-bromo-5-fluorophenyl)-1H-1,2,3-triazol-1-yl)-N-(3-cyano-5-methoxyphenyl)-5-hydroxy-N-((1S,2S)-2-hydroxycyclobutyl)-6-(hydroxymethyl)-3-methoxytetrahydro-2H-pyran-2-carboxamide] had an IC50 of 224 nM.

The molecule `CO[C@@H]1[C@@H](n2cc(-c3ccc(C)c(F)c3F)nn2)[C@@H](O)[C@@H](CO)O[C@H]1C(=O)N(c1cc(Cl)cc(Cl)c1)[C@@H]1CC[C@H]1O` [Example 2.11.2R, (2R,3R,4S,5R,6R)-N-(3,5-dichlorophenyl)-4-(4-(2,3-difluoro-4-methylphenyl)-1H-1,2,3-triazol-1-yl)-5-hydroxy-N-((1R,2R)-2-hydroxycyclobutyl)-6-(hydroxymethyl)-3-methoxytetrahydro-2H-pyran-2-carboxamide] gave an IC50 of 74.8 nM.

Regarding `CO[C@@H]1[C@@H](n2cc(-c3cc(F)cc(F)c3)nn2)[C@@H](O)[C@@H](CO)O[C@H]1C(=O)N(c1cc(Br)cc(C#N)c1)[C@H]1CCC[C@@H]1O` [Example 1.2.5, (2R,3R,4S,5R,6R)-N-(3-bromo-5-cyanophenyl)-4-(4-(3,5-difluorophenyl)-1H-1,2,3-triazol-1-yl)-5-hydroxy-N-((1S,2S)-2-hydroxycyclopentyl)-6-(hydroxymethyl)-3-methoxytetrahydro-2H-pyran-2-carboxamide], the IC50 amounted to 146 nM.

In the case of `COc1cc(-c2cn([C@H]3[C@@H](O)[C@@H](CO)O[C@@H](C(=O)N(c4cc(Cl)cc(Cl)c4)[C@H]4CC[C@@H]4O)[C@@H]3OC)nn2)cc(F)c1F` [Example 2.3.2, (2R,3R,4S,5R,6R)-N-(3,5-dichlorophenyl)-4-(4-(3,4-difluoro-5-methoxyphenyl)-1H-1,2,3-triazol-1-yl)-5-hydroxy-N-((1S,2S)-2-hydroxycyclobutyl)-6-(hydroxymethyl)-3-methoxytetrahydro-2H-pyran-2-carboxamide], the IC50 is 67.8 nM.

Consider `CO[C@@H]1[C@@H](n2cc(-c3ccc(C)c(F)c3)nn2)[C@@H](O)[C@@H](CO)O[C@H]1C(=O)N(c1cc(C)cc(C#N)c1)[C@@H]1CCC[C@H]1O` [Example 1.13.8R, (2R,3R,4S,5R,6R)-N-(3-cyano-5-methylphenyl)-4-(4-(3-fluoro-4-methylphenyl)-1H-1,2,3-triazol-1-yl)-5-hydroxy-N-((1R,2R)-2-hydroxycyclopentyl)-6-(hydroxymethyl)-3-methoxytetrahydro-2H-pyran-2-carboxamide], for which the IC50 was determined as 206 nM.

In turn, `COc1cc(-c2cn([C@H]3[C@@H](O)[C@@H](CO)O[C@@H](C(=O)N(c4cc(Cl)cc(Cl)c4)[C@H]4CCC[C@@H]4O)[C@@H]3OC)nn2)cc(F)c1F` [Example 1.3.2, (2R,3R,4S,5R,6R)-N-(3,5-dichlorophenyl)-4-(4-(3,4-difluoro-5-methoxyphenyl)-1H-1,2,3-triazol-1-yl)-5-hydroxy-N-((1S,2S)-2-hydroxycyclopentyl)-6-(hydroxymethyl)-3-methoxytetrahydro-2H-pyran-2-carboxamide] showed an IC50 of 29.5 nM.

Take `CO[C@@H]1[C@@H](n2cc(-c3cc(F)c(F)c(F)c3)nn2)[C@@H](O)[C@@H](CO)O[C@H]1C(=O)N(c1cc(Cl)cc(C#N)c1)[C@H]1CC[C@@H]1O` [Example 2.1.4, (2R,3R,4S,5R,6R)-N-(3-chloro-5-cyanophenyl)-5-hydroxy-N-((1S,2S)-2-hydroxycyclobutyl)-6-(hydroxymethyl)-3-methoxy-4-(4-(3,4,5-trifluorophenyl)-1H-1,2,3-triazol-1-yl)tetrahydro-2H-pyran-2-carboxamide]: the IC50 is 78.8 nM.

The molecule `CO[C@@H]1[C@@H](n2cc(-c3cc(F)c(F)c(F)c3)nn2)[C@@H](O)[C@@H](CO)O[C@H]1C(=O)N(c1cc(C)cc(Br)c1)[C@H]1CCC[C@@H]1O` [Example 1.1.12, (2R,3R,4S,5R,6R)-N-(3-bromo-5-methylphenyl)-5-hydroxy-N-((1S,2S)-2-hydroxycyclopentyl)-6-(hydroxymethyl)-3-methoxy-4-(4-(3,4,5-trifluorophenyl)-1H-1,2,3-triazol-1-yl)tetrahydro-2H-pyran-2-carboxamide] came in with an IC50 of 34.7 nM.

By IC50 is commonly meant the midpoint of a concentration-inhibition curve.

The values above are taken from patent publication US20230348442A1, “GALECTIN-3 INHIBITING 2-HYDROXYCYCLOALKANE-1-CARBAMOYL DERIVATIVES” (Idorsia Pharmaceuticals Ltd, priority 2020, published 2023).
